Patent US20170298052A1, “SUBSTITUTED OXOPYRIDINE DERIVATIVES” (BAYER PHARMA AKTIENGESELLSCHAFT, priority 2014, published 2017)

Key:
human factor XIa = target: T1, human factor XIa (Homo sapiens, UniProt P03951); assay: Measurement of FXIa inhibition (fluorogenic peptide substrate, AMC cleavage); assay type: biochemical; details: factor XIa from Kordia 0.45 nM; substrate Boc-Glu(OBzl)-Ala-Arg-AMC; 30 min at 22° C.
T1 construct: purchased Kordia
Experimental: (§1) The factor XIa inhibition of the substances according to the invention is determined using a biochemical test system which utilizes the reaction of a peptidic factor XIa substrate to determine the enzymatic activity of human factor XIa. Here, factor XIa cleaves from the peptic factor XIa substrate the C-terminal aminomethylcoumarin (AMC), the fluorescence of which is measured. The determinations are carried out in microtitre plates.
1 μl of the diluted substance solutions is placed into each of the wells of white microtitre plates from Greiner (384 wells). […] After 15 min of incubation, the enzyme reaction is started by addition of 20 μl of the factor XIa substrate Boc-Glu(OBzl)-Ala-Arg-AMC dissolved in assay buffer (10 μM in assay buffer) from Bachem, the mixture is incubated at room temperature (22° C.) for 30 min and fluorescence is then measured (excitation: 360 nm, emission: 460 nm). The measured emissions of the test batches with test substance are compared to those of control batches without test substance (only dimethyl sulphoxide instead of test substance in dimethyl sulphoxide), and IC50 values are calculated from the concentration/activity relationships.

human plasma kallikrein = human plasma kallikrein (Homo sapiens, UniProt P03952); assay: Determination of the plasma kallikrein activity (fluorogenic peptide substrate, AMC cleavage); assay type: biochemical; details: plasma kallikrein from Kordia 0.6 nM; substrate H-Pro-Phe-Arg-AMC; 30 min at 22° C.; read-out: IC50 [nM] (Table B, plasma kallikrein inhibition)
Sequence of human plasma kallikrein (P03952 391-638 limits assumed): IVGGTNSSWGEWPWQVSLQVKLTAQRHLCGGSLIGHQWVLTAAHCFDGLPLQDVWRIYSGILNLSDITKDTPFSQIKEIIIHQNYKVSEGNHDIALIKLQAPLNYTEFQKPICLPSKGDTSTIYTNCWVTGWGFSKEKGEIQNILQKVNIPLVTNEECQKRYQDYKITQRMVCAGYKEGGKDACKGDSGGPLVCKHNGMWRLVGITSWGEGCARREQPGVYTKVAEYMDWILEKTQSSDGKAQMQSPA
Sequence of human plasma kallikrein (P03952 20-390 partner limits assumed): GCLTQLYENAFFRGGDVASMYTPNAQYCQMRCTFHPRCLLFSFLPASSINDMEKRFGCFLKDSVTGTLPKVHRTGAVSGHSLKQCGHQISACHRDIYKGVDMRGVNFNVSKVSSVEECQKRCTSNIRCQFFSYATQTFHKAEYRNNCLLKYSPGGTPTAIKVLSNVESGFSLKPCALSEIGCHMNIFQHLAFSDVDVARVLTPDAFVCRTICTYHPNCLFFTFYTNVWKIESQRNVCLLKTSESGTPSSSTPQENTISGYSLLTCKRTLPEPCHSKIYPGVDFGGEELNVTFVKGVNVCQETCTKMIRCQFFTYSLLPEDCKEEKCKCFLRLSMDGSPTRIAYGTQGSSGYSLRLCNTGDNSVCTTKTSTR
Experimental: as §1, with “To determine the plasma kallikrein” for “The factor XIa”, “invention,” for “invention is determined using”, “system is used” for “system”, “plasma kallikrein” for “factor XIa”, “plasma kallikrein.” for “factor XIa.”
Test substances are dissolved in dimethyl sulphoxide and serially diluted in dimethyl sulphoxide (3000 μM to 0.0078 μM; resulting final concentrations in the test: 50 μM to 0.00013 μM). 1 μl of the diluted substance solutions is placed into each of the wells of white microtitre plates from Greiner (384 wells). 20 μl of assay buffer (50 mM Tris/HCl pH 7.4; 100 mM sodium chloride solution; 5 mM of calcium chloride solution; 0.1% of bovine serum albumin) and 20 μl of plasma kallikrein from Kordia (0.6 nM in assay buffer) are then added successively. After 15 min of incubation, the enzyme reaction is started by addition of 20 μl of the substrate H-Pro-Phe-Arg-AMC dissolved in assay buffer (10 μM in assay buffer) from Bachem, the mixture is incubated at room temperature (22° C.) for 30 min and fluorescence is then measured (excitation: 360 nm, emission: 460 nm). The measured emissions of the test batches with test substance are compared to those of control batches without test substance (only dimethyl sulphoxide instead of test substance in dimethyl sulphoxide), and IC50 values are calculated from the concentration/activity relationships.

T1 sequence (P03951 388-625 limits assumed): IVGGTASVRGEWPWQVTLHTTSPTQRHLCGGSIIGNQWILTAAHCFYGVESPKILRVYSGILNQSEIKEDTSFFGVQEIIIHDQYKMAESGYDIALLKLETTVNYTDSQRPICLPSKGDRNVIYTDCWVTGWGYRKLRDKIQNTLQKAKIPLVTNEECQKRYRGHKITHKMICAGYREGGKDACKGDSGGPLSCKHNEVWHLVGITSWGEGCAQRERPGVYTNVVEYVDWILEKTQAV
T1 sequence (P03951 19-387 partner limits assumed): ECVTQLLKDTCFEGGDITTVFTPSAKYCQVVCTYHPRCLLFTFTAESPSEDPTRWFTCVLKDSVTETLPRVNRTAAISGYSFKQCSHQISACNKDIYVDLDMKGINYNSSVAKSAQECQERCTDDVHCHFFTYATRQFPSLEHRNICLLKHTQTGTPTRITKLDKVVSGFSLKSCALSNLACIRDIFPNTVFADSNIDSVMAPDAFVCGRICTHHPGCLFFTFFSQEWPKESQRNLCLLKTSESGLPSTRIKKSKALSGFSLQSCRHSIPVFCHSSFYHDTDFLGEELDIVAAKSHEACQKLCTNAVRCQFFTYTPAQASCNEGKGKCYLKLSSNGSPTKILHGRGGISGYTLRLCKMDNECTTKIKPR

IC50 (human factor XIa) [nM]	IC50 (human plasma kallikrein) [nM]	Compound
14	11	CCOCCC(C(=O)Nc1ccc(C(N)=O)c(F)c1)n1cc(OC)c(-c2cc(Cl)ccc2C#N)cc1=O (racemic) [Example 18, 4-({2-[4-(5-Chloro-2-cyanophenyl)-5-methoxy-2-oxopyridin-1(2H)-yl]-4-ethoxybutanoyl}amino)-2-fluorobenzamide]
51	38	COc1cn(C(CC2=NOCC2)C(=O)Nc2ccc(C(N)=O)c(F)c2)c(=O)cc1-c1cc(Cl)ccc1C#N (racemic) [Example 42, 4-({2-[4-(5-Chloro-2-cyanophenyl)-5-methoxy-2-oxopyridin-1(2H)-yl]-3-(4,5-dihydro-1,2-oxazol-3-yl)propanoyl}amino)-2-fluorobenzamide]
7.4	6.1	COc1cn(C(CCOC2CCC2)C(=O)Nc2ccc(C(N)=O)c(F)c2)c(=O)cc1-c1cc(Cl)ccc1C#N (racemic) [Example 20, 4-({2-[4-(5-Chloro-2-cyanophenyl)-5-methoxy-2-oxopyridin-1(2H)-yl]-4-(cyclobutyloxy)-butanoyl}amino)-2-fluorobenzamide]
21	12	COc1cn(C(CCOCC(F)F)C(=O)Nc2ccc(C(N)=O)c(F)c2)c(=O)cc1-c1cc(Cl)ccc1C#N (racemic) [Example 22, 4-({2-[4-(5-Chloro-2-cyanophenyl)-5-methoxy-2-oxopyridin-1(2H)-yl]-4-(2,2-difluoroethoxy)-butanoyl}amino)-2-fluorobenzamide]
12	8.3	COc1cn(C(Cc2ccn(C)n2)C(=O)Nc2ccc(C(N)=O)c(F)c2)c(=O)cc1-c1cc(C)ccc1C#N (racemic) [Example 43, 4-({2-[4-(2-Cyano-5-methylphenyl)-5-methoxy-2-oxopyridin-1(2H)-yl]-3-(1-methyl-1H-pyrazol-3-yl)propanoyl}amino)-2-fluorobenzamide]
14	14	COc1cn(C(Cc2cnco2)C(=O)Nc2ccc(C(N)=O)c(F)c2)c(=O)cc1-c1cc(Cl)ccc1C#N (stereo not drawn) [Example 5]
12.5	7.4	COc1cn(C(CCOC(C)C)C(=O)Nc2ccc(C(N)=O)c(F)c2)c(=O)cc1-c1cc(Cl)ccc1C#N (racemic) [Example 19, 4-({2-[4-(5-Chloro-2-cyanophenyl)-5-methoxy-2-oxopyridin-1(2H)-yl]-4-isopropoxybutanoyl}amino)-2-fluorobenzamide]
52	140	N#Cc1ccc(Cl)cc1-c1cc(=O)n(C(Cc2cnco2)C(=O)Nc2ccc(C(N)=O)c(F)c2)cc1Cl (stereo not drawn) [Example 4]
9	7	COc1cn(C(Cc2ccncc2)C(=O)Nc2ccc(C(N)=O)c(F)c2)c(=O)cc1-c1cc(Cl)ccc1C#N (stereo not drawn) [Example 10]
190	260	N#Cc1ccc(Cl)cc1-c1cc(=O)n(C(Cc2cocn2)C(=O)Nc2ccc(C(N)=O)c(F)c2)cc1Cl (stereo not drawn) [Example 2]
15	7.7	COCCC(C(=O)Nc1ccc(C(N)=O)c(OC)c1)n1cc(OC)c(-c2cc(Cl)ccc2C#N)cc1=O (racemic) [Example 48, 4-({2-[4-(5-Chloro-2-cyanophenyl)-5-methoxy-2-oxopyridin-1(2H)-yl]-4-methoxybutanoyl}amino)-2-methoxybenzamide]
13	11	COc1cn(C(Cc2cc(C)no2)C(=O)Nc2ccc(C(N)=O)c(F)c2)c(=O)cc1-c1cc(Cl)ccc1C#N (racemic) [Example 32, 4-({2-[4-(5-Chloro-2-cyanophenyl)-5-methoxy-2-oxopyridin-1(2H)-yl]-3-(3-methyl-1,2-oxazol-5-yl)propanoyl}amino)-2-fluorobenzamide]
12	7.3	COc1cn(C(Cc2nnc(C)o2)C(=O)Nc2ccc(C(N)=O)c(F)c2)c(=O)cc1-c1cc(Cl)ccc1C#N (racemic) [Example 35, 4-({2-[4-(5-Chloro-2-cyanophenyl)-5-methoxy-2-oxopyridin-1(2H)-yl]-3-(5-methyl-1,3,4-oxadiazol-2-yl)propanoyl}amino)-2-fluorobenzamide]
9.7	8.2	CNC(=O)c1ccc(NC(=O)C(Cc2ccccn2)n2cc(OC)c(-c3cc(Cl)ccc3C#N)cc2=O)cc1F (racemic) [Example 30, 4-({2-[4-(5-Chloro-2-cyanophenyl)-5-methoxy-2-oxopyridin-1(2H)-yl]-3-(pyridin-2-yl)propanoyl}amino)-2-fluoro-N-methylbenzamide]
15	10	COc1cn(C(Cc2noc(C)n2)C(=O)Nc2ccc(C(N)=O)c(F)c2)c(=O)cc1-c1cc(Cl)ccc1C#N (racemic) [Example 33, 4-({2-[4-(5-Chloro-2-cyanophenyl)-5-methoxy-2-oxopyridin-1(2H)-yl]-3-(5-methyl-1,2,4-oxadiazol-3-yl)propanoyl}amino)-2-fluorobenzamide]
20	20	CCC(C(=O)Nc1ccc(C(=O)NC)cc1)n1cc(OC)c(-c2cc(Cl)ccc2C#N)cc1=O (racemic) [Example 26, 4-({2-[4-(5-chloro-2-cyanophenyl)-5-methoxy-2-oxopyridin-1(2H)-yl]butanoyl}amino)-N-methylbenzamide]
240	490	N#Cc1ccc(Cl)cc1-c1cc(=O)n(C(Cc2cnco2)C(=O)Nc2ccc(C(N)=O)c(F)c2)cc1OC(F)F (stereo not drawn) [Example 1]
25	36	CCC(C(=O)Nc1ccc(C(N)=O)c(F)c1)n1cc(OC)c(-c2cc(Cl)ccc2C#N)cc1=O (stereo not drawn) [Example 7]
42	53	COc1cn(C(Cc2ccccn2)C(=O)Nc2ccc(C(N)=O)c(F)c2)c(=O)cc1-c1cc(Cl)ccc1C(F)F (racemic) [Example 34, 4-{[2-{4-[5-Chloro-2-(difluoromethyl)phenyl]-5-methoxy-2-oxopyridin-1(2H)-yl}-3-(pyridin-2-yl)propanoyl}amino]-2-fluorobenzamide]
12	30	CCC(C(=O)Nc1ccc(C(=O)NC)c(F)c1)n1cc(OC)c(-c2cc(Cl)ccc2C#N)cc1=O (stereo not drawn) [Example 8]
8.9	2.4	COc1cc(NC(=O)C(Cc2ccn(C)n2)n2cc(OC)c(-c3cc(Cl)ccc3C#N)cc2=O)ccc1C(N)=O (racemic) [Example 46, 4-({2-[4-(5-Chloro-2-cyanophenyl)-5-methoxy-2-oxopyridin-1(2H)-yl]-3-(1-methyl-1H-pyrazol-3-yl)propanoyl}amino)-2-methoxybenzamide]
13	11	COc1cn(C(Cc2ncco2)C(=O)Nc2ccc(C(N)=O)c(F)c2)c(=O)cc1-c1cc(Cl)ccc1C#N (racemic) [Example 36, 4-({2-[4-(5-Chloro-2-cyanophenyl)-5-methoxy-2-oxopyridin-1(2H)-yl]-3-(1,3-oxazol-2-yl)propanoyl}amino)-2-fluorobenzamide]
34	27	COc1cn(C(Cc2cnco2)C(=O)Nc2cc(F)c(C(N)=O)c(F)c2)c(=O)cc1-c1cc(Cl)ccc1C#N (racemic) [Example 40, 4-({2-[4-(5-Chloro-2-cyanophenyl)-5-methoxy-2-oxopyridin-1(2H)-yl]-3-(1,3-oxazol-5-yl)propanoyl}amino)-2,6-difluorobenzamide]
11	10	COc1cn(C(Cc2ccccn2)C(=O)Nc2ccc(C(N)=O)c(F)c2)c(=O)cc1-c1cc(Cl)ccc1C#N (stereo not drawn) [Example 12]
170	310	COCCC(C(=O)Nc1ccc(C(N)=O)c(F)c1)n1cc(OC)c(-c2cc(OC)ccc2C#N)cc1=O (racemic) [Example 23, 4-({2-[4-(2-Cyano-5-methoxyphenyl)-5-methoxy-2-oxopyridin-1(2H)-yl]-4-methoxybutanoyl}amino)-2-fluorobenzamide]
	9.7	COCCC(C(=O)Nc1ccc(C(N)=O)c(F)c1)n1cc(OC)c(-c2cc(Cl)ccc2C#N)cc1=O (racemic) [Example 31, 4-({2-[4-(5-Chloro-2-cyanophenyl)-5-methoxy-2-oxopyridin-1(2H)-yl]-4-methoxybutanoyl}amino)-2-fluorobenzamide]
